Broadly, the IC50 is the concentration that inhibits the measured activity by half.

A value given as a limit tells only on which side of the number the result lay.

In assay [1] the target is Dual specificity tyrosine-phosphorylation-regulated kinase 1A (Rattus norvegicus, UniProt Q63470). The experiment in a line: Inhibition of rat recombinant DYRK1A-GST expressed in Escherichia coli using KKISGRLSPIMTEQ as substrate.
The nature of assay [2]: Inhibition of porcine brain CK1delta/epsilon using RRKHAAIGpSAYSITA as substrate. Also noted: species or system Sus scrofa.
For assay [3], the target named is Glycogen synthase kinase-3 (Sus scrofa, UniProt B2LUN4+I6LNT8). Kind of assay: Inhibition of porcine brain GSK3alpha/beta using GS-1 as substrate.
Assay [4] deals with Cyclin-dependent kinase 5/CDK5 activator 1 (Homo sapiens, UniProt Q00535). The experiment in a line: Inhibition of human recombinant CDK5/p25 after 30 mins by scintillation counting. Type of assay: protein-complex assay.
Chain of Cyclin-dependent kinase 5/CDK5 activator 1 (Q00535 whole entry): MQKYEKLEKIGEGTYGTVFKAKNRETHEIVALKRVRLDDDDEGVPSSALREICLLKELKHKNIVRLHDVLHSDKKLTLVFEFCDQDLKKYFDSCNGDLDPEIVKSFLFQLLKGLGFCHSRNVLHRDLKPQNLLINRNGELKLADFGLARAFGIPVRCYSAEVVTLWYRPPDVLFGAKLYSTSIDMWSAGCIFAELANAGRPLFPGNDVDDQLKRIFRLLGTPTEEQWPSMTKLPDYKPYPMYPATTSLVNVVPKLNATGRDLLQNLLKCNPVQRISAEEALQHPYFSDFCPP
Chain of Cyclin-dependent kinase 5/CDK5 activator 1 (Q15078 whole entry, further chain): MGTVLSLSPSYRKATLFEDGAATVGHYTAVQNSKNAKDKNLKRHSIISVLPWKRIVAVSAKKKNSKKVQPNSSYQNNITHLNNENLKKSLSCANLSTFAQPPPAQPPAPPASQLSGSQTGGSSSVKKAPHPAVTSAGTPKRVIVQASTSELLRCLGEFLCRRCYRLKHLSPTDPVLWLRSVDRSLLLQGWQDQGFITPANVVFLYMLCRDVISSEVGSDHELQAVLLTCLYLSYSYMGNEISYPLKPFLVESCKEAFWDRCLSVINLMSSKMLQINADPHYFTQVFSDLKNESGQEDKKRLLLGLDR
Assay [5] concerns the target Dual specificity protein kinase CLK1 (Homo sapiens, UniProt P49759).

Chain of Dual specificity protein kinase CLK1 (P49759 whole entry): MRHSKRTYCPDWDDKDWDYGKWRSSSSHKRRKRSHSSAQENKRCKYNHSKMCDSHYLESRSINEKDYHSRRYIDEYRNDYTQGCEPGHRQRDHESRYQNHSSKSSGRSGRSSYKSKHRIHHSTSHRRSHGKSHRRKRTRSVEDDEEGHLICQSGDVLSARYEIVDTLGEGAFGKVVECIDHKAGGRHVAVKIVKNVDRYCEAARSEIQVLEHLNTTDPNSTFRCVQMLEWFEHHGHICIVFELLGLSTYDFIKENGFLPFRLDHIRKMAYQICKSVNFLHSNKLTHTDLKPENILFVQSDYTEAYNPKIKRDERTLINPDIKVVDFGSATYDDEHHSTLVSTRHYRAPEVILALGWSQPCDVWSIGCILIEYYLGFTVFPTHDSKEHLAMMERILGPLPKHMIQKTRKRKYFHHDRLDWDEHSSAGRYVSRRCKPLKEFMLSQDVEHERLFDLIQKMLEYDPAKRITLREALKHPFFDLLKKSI

On to `COc1ccc(Nc2ncnc3c2oc2cc(OC)ccc23)cc1`, for which the IC50 is 0.88 µM in assay [1]; over 10 µM in assay [2]; over 10 µM in assay [3]; over 10 µM in assay [4]; 1.5 µM in assay [5].

Consider `COc1ccc2c(c1)sc1c(Nc3cccc(C)c3)ncnc12`, for which the IC50 is 6.1 µM in assay [1]; over 10 µM in assay [2]; over 10 µM in assay [3]; over 10 µM in assay [4]; over 10 µM in assay [5].

For the compound `COc1ccc2c(c1)oc1c(Nc3cc(OC)c(OC)c(OC)c3)ncnc12`, the IC50 in assay [1], in assay [2], in assay [3], in assay [4] and in assay [5] was over 10 µM in each case.

Turning to `COc1ccc2c(c1)oc1c(Nc3ccc(Br)cc3F)ncnc12`, the IC50 in assay [1], in assay [2], in assay [3], in assay [4] and in assay [5] was over 10 µM in each case.

As for `COc1ccc2c(c1)oc1c(N)ncnc12`, the IC50 in assay [1] is 1.1 µM; in assay [2], 1.9 µM; in assay [3] it was over 10 µM; in assay [4], over 10 µM; in assay [5], 0.41 µM.

Turning to `COc1ccc2c(c1)sc1c(Nc3ccc(Cl)cc3F)ncnc12`, the IC50 in assay [1], in assay [2], in assay [3], in assay [4] and in assay [5] was over 10 µM each time.

In the case of `COc1ccc2c(c1)oc1c(Nc3ccc(Cl)c(Cl)c3)ncnc12`, the IC50 in assay [1], in assay [2], in assay [3], in assay [4] and in assay [5] was over 10 µM in each case.

Take `COc1ccc2c(c1)oc1c(Nc3cc(Cl)cc(Cl)c3)ncnc12`: the IC50 in assay [1], in assay [2], in assay [3], in assay [4] and in assay [5] was over 10 µM throughout.

`COc1ccc2c(c1)oc1c(Nc3ccc(Cl)cc3F)ncnc12`: the IC50 in assay [1], in assay [2], in assay [3], in assay [4] and in assay [5] was over 10 µM each time.

Regarding `COc1ccc2c(c1)oc1c(Nc3ccc(N(C)C)cc3)ncnc12`, the IC50 in assay [1], in assay [2], in assay [3], in assay [4] and in assay [5] was over 10 µM each time.

Take `COc1ccc2c(c1)oc1c(Nc3ccc(Cl)cc3Cl)ncnc12`: the IC50 in assay [1] is 3.1 µM; in assay [2], over 10 µM; in assay [3], over 10 µM; in assay [4] it was over 10 µM; in assay [5], over 10 µM.

As for `COc1ccc2c(c1)oc1c(Nc3ccc(C#N)cc3)ncnc12`, the IC50 in assay [1], in assay [2], in assay [3], in assay [4] and in assay [5] was over 10 µM throughout.

In the case of `COc1ccc2c(c1)sc1c(Nc3ccc(F)cc3F)ncnc12`, the IC50 was 0.93 µM in assay [1]; 3.9 µM in assay [2]; over 10 µM in assay [3]; over 10 µM in assay [4]; 1.6 µM in assay [5].

For the compound `COc1ccc(Nc2ncnc3c2sc2cc(OC)ccc23)cc1`, the 50% inhibitory concentration (IC50) in assay [1] is 7.1 µM; in assay [2], over 10 µM; in assay [3], over 10 µM; in assay [4] it was over 10 µM; in assay [5], over 10 µM.

(Values after ChEMBL document CHEMBL2311417, “Synthesis and biological evaluation of N-aryl-7-methoxybenzo[b]furo[3,2-d]pyrimidin-4-amines and their N-arylbenzo[b]thieno[3,2-d]pyrimidin-4-amine analogues as dual inhibitors of CLK1 and DYRK1A kinases” (Eur J Med Chem, 2013).)
